Laboratory results from PMC7059199, “Identification and structural insight of an effective PPARγ modulator with improved therapeutic index for anti-diabetic drug discovery” (Chemical Science, 2020).

Assays:
GST-PPARγ LBD = target: T1, GST-PPARγ LBD (Homo sapiens, UniProt P37231); experiment: LanthaScreen TR-FRET competitive binding assay, PPARγ
T1 construct: 0.5 nM GST-PPARγ LBD was incubated with 5 nM Fluormone™; purchased Invitrogen
T1 sequence (P37231 238-503 limits assumed): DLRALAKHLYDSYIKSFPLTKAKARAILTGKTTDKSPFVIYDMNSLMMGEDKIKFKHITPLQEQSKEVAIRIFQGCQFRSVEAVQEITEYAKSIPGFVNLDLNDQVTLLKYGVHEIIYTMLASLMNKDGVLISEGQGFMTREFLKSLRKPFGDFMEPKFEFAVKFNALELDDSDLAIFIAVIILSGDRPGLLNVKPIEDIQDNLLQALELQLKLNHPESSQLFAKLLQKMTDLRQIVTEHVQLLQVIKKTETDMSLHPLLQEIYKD
Description: LanthaScreen™ TR-FRET assay (Invitrogen) was used for measuring the binding affinities of the ligands. 0.5 nM GST-PPARγ LBD was incubated with 5 nM Fluormone™ and Terbium-coated GST antibody.
Competitive TR -FRET binding assay
The GST PPARγ -LBD was labeled with a terbium-linked antibody and a fluorescent small molecule pan-PPAR ligand (Fluormone™ Pan-PPAR Green, Invitrogen) was used as a tracer that is displaced from the ligand binding domain upon agonist binding.
Excitation of the terbium at 340 nm results in FRET to the fluorescent tracer, with
Tracer displacment results is a loss of FRET signal between the terbium label and the fluorescent tracer.
The inhibition constant (ki) for a competitor was calculated by applying the
Cheng-Prusoff equation as following:
the tracer, [tracer] is the concentration of Fluormone™ Pan-PPAR Green used in the

3T3-L1 cells = experiment: qPCR of adipogenic genes in 3T3-L1 cells; assay type: cell-based, mouse; settings: 7 days after treatment
Description: Encouraged by the above results and to further determine whether VSP-77 activates PPARγ in 3T3-L1 cells, we evaluated the ability of VSP-77 to stimulate PPARγ activity by measuring the mRNA levels of endogenous PPARγ-regulated downstream genes linked to adipogenesis (primers are listed in Table S1 ^†).
Fig. 7 Expression of adipogenic genes in 3T3-L1 cells was analyzed by quantitative PCR (qPCR). Relative mRNA levels of the adipocyte differentiation genes PPARγ, aP2, CD36, LPL, C/EBPα and Fasn. mRNA was extracted from differentiating cells 7 days after treatment (n = 3, error bars = SEM). […]
(average±standard deviation calculated from three separate experiments). […]
Cells were stained with Oil Red O to estimate the lipid accumulation. The images were analyzed using ImageJ (National Institutes of Health).
For real-time PCR analysis, 1-2 μg total RNA was reverse-transcribed using the SuperScript cDNA Reverse Transcription Kit (Invitrogen) with SYBR Green PCR Master Mix (Invitrogen) and gene specific primers (Table S1) using a Roche Light Cycler 480 machine. The relative expression of mRNA was determined after normalization to β-actin level using the ΔΔ-Ct method. […]

- binding to PPARγ (in words) (GST-PPARγ LBD; at 10 μM): potent binding affinity
- Ki (GST-PPARγ LBD; competition of Fluormone (5 nM), 0.5 nM GST-PPARγ LBD): 4.8 µM
- binding affinity for PPARγ relative to DA (GST-PPARγ LBD; higher than DA): about 10 fold
SMILES: CCCCCCCC(OCC(=O)O)c1ccc(Cl)cc1 (stereo not shown) [VSP-77]
- expression of adipogenic genes PPARγ, aP2, CD36, LPL, C/EBPα and Fasn (mRNA) (3T3-L1 cells): only weakly stimulated
